Target: BTK recombinant protein (Homo sapiens (Human), UniProt Q06187)
Assay: Determination of biochemical BTK (Z'-LYTE kinase assay)
Details: 32 μM ATP

BTK recombinant protein, sequence (Q06187 whole entry): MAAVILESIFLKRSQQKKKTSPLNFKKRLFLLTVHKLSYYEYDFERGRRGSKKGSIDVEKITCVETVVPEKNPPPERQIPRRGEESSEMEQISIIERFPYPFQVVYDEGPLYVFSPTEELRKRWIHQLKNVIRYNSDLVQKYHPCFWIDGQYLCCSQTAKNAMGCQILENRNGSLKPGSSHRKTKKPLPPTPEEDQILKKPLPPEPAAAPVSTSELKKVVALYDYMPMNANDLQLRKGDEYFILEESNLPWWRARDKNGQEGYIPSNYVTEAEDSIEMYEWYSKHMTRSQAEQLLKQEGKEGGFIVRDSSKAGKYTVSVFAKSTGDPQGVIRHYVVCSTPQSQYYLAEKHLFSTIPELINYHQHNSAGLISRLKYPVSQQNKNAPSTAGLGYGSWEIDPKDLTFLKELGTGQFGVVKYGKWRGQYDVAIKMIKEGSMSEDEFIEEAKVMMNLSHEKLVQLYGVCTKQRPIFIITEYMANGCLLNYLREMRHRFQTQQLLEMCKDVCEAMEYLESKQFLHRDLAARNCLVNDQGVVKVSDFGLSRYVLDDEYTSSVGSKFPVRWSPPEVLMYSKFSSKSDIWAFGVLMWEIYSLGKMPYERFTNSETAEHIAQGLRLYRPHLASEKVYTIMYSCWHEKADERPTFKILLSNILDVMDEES

Compound: C[C@H]1CN(C2COC2)C[C@H](C)N1c1ccc(Nc2cc(-c3ccnc(-n4ccn5c6c(cc5c4=O)CC(C)(C)C6)c3CO)cn(C)c2=O)nc1 [Compound 1, 2-(5-((5-((2S,6S)-2,6-dimethyl-4-(oxetan-3-yl)piperazin-1-yl)pyridin-2-yl)amino)-3′-(hydroxymethyl)-1-methyl-6-oxo-1,6-dihydro-[3,4′-bipyridin]-2′-yl)-7,7-dimethyl-7,8-dihydro-2H-cyclopenta[4,5]pyrrolo[1,2-a]pyrazin-1(6H)-one]
- IC50: 10 nM
